Experimental data as given in paper PMC10010335, “Depletion of Mannose Receptor–Positive Tumor-associated Macrophages via a Peptide-targeted Star-shaped Polyglutamate Inhibits Breast Cancer Progression in Mice” (Cancer Research Communications, 2022).
Where a SMILES comes first, the peptide text is derived from it. Where no end group is shown, it is not given here. The star is where a group is joined. 5FAM = O=C1OC2(c3ccc(O)cc3Oc3cc(O)ccc32)c2ccc(C(=O)*)cc21; Ahx = NCCCCCC(=O)O

What was measured:
[1] = system: primary human M2-resembling (MCSF + IL4 polarized) macrophages; experiment: In vitro cytotoxicity (MTT), M2-resembling macrophages; type: cell-based; settings: 15-minute incubation at 33 and 100 μmol/L DOX, washed, 48 hours, N = 3 wells
Protocol: Human peripheral blood mononuclear cells (PBMC) were purified from human blood buffy coat using Ficoll Paque Plus (GE Healthcare, catalog no. 17-1440-02) reagent and CD14^+ microbeads (MACS Miltenyi Biotec, catalog no. 130-050-201) as described previously ([42]). A total of 1.2 × 10^5 cells in 50 μL of RPMI1640 medium were seeded on an FBS-coated 96-well plate. To obtain optimal macrophage attachment and M2 resembling, 50 μL of IL4 (50 ng/mL, BioLegend, catalog no. 574002) and MCSF (50 ng/mL, BioLegend, catalog no. 574802) mixture was added to the wells. The medium was replenished by substituting half of the medium with fresh medium containing IL4 and MCSF every other day for 6 days. To obtain M1-resembling macrophages, monocytes were incubated with M-CSF (50 ng/mL) for 6 days, replenishing every other day with fresh medium containing MCSF and on day 6, 50 μL of MCSF, lipopolysaccharide (LPS, 100 ng/mL, Sigma-Aldrich, catalog no. L4391) and IFNγ (20 ng/mL, BioLegend, catalog no. 570202) was added and incubated overnight. […] After incubation, wells were washed, fresh medium added, and cells incubated for 48 hours at 37°C. […] Absorbance was read at 580 nm using a plate reader (Tecan Sunrise) and the corresponding Magellan 7 program. […] After that, cells were washed 2× with 200 μL of RB and read using BD Accuri 6 plus (BD Biosciences). […]

[2] = system: orthotopic TNBC (4T1 cells); experiment: OximUNO treatment of orthotopic TNBC; type: in vivo, Balb/c mice
Protocol: Two tumor models were used for treatment studies: the orthotopic TNBC model where 5 × 10^4 4T1 cells in 50 μL of PBS were injected subcutaneously into fourth mammary fat pad; and the experimental metastasis of TNBC model where 2 × 10^5 4T1-GFP cells in 100 μL of PBS were intravenously injected.
A total of 5 × 10^4 4T1 cells in 50 μL of PBS were subcutaneously injected into the fourth mammary fat pad of 8–12 weeks old female Balb/c mice. On day 7, mice were sorted into four groups by tumor volume measured using a digital caliper (Mitutoyo). Tumor volume was calculated on the basis of the formula (W^2 × L)/2, where W is the tumor's width and L is the tumor's length. […] Mouse bodyweight and tumor volumes were monitored every other day. […] CD206 was detected using rat anti-mouse CD206 (dilution 1/200), CD8 using rat anti-mouse CD8 (dilution 1/75 BioLegend, catalog no. 100701), FOXP3 using rat anti-mouse FOXP3 (dilution 1/75, BioLegend, catalog no. 126401) as primary antibodies, Alexa Fluor goat anti-rat 647 (dilution 1/300 for CD206 and 1/200 for CD8, FOXP3,) was used as a secondary antibody for all markers. […]
For H&E staining, 2-μm–thick sections were cut from paraffin-embedded blocks. […] Images were analyzed using the QuPath program (version 0.1.2; ref. [52]). […] Stained heart sections were also scanned using a slide scanner and analysed with the QuPath program. […]

[3] = cited from earlier work
Text: On the basis of these ante ...

[4] = same mice strain, sex, age; cited from earlier work

With `COc1cccc2c1C(=O)c1c(O)c3c(c(O)c1C2=O)C[C@@](O)(C(=O)CO)C[C@@H]3O[C@H]1C[C@H](N)[C@H](O)[C@H](C)O1` [DOX, doxorubicin] the “toxicity (MTT cell viability)” value [1] was “only displayed toxicity in MCSF + IL4 polarized macrophages at 100 μmol/L”, the “CD206 expression in primary tumor” value ([2]; IF, compared with PBS) was “upregulated CD206 expression” and the mouse bodyweight ([2]; i.p., 2 mg/kg of DOX every other day, nine injections) was “significant decrease in mouse bodyweight”.

For `C[C@H](NC(=O)CNC(=O)[C@@H]1CCCN1C(=O)[C@H](CO)NC(=O)[C@H](CS)NC(=O)CCCCCNC(=O)c1ccc2c(c1)C(=O)OC21c2ccc(O)cc2Oc2cc(O)ccc21)C(=O)N[C@@H](CCCCN)C(=O)O` [FAM-mUNO] ({5FAM-Ahx}-CSPGAK-OH), the “degradation of FAM coupled through an amide bond, in serum” value [3] is given as “negligible degradation”.

In the case of CSPGAK-OH [mUNO], the “half-life, intraperitoneal versus intravenous administration” value [4] is listed as “substantially longer half-life”.
